Like-named read-outs stand apart in the source and are kept apart here.
Legend:
[1] = tested on: Beu melanic human melanoma; assay: Scintillation imaging, nu/nu SSCUP nude mice bearing Beu; type: in vivo; settings: ^123 I label
Text: The mice bearing grafted tumors are anesthetized by the i.p. injection of sodium pentobarbital 1/5 and immobilized under a scintillation camera (Gammatome II, CGR) equipped with a pinhole 3-360 collimator, sensitivity 3.2 10^-4.
nu/nu SSCUP nudes bearing human melanomas Beu and Dau.
The scanning observations have also been carried out after the injection of B into the following mice:
nu/nu SSCUP nudes bearing the Beu heterotransplant.

B16 murine melanoma = assay: Tissue distribution in C57 BL6 mice bearing B16; type: in vivo, mouse; settings: mouse, in vivo
Experimental: (§1) The study of the tissue distribution of the ^125 I labelled compounds was performed in mice bearing grafted melanomas (cf. autoradiograms above). […] The animals are sacrificed at different time intervals of 1 to 24 hours after the injection. The blood is collected and the principal organs are excised. Aliquots are weighed and the radioactivity of the samples is measured in a […] 1191 counter (analytic tracer). The counting yield for iodine 125 is 60%. The results are expressed: as a percentage of the injected dose bound per g of tissue (% ID/g); in the form of the ratios [formula] This ratio reflects more precisely the selectivity of a molecule for an organ (tables 2, 4, 6, 8, 10 and 12).

[2] = Tissue distribution in C57 BL6 mice bearing B16; type: in vivo, mouse; settings: mouse, iv, 3 umol/animal
Experimental: as §1

[3] = intestine, read-out: intestine % ID/g
[4] = kidney, read-out: kidney % ID/g
[5] = muscle, read-out: muscle % ID/g
[6] = pancreas, read-out: pancreas % ID/g
[7] = plasma, read-out: plasma % ID/g
[8] = spleen, read-out: spleen % ID/g
[9] = stomach, read-out: stomach % ID/g
[10] = submaxillary glands, read-out: submaxillary glands % ID/g

## CCN(CC)CCNC(=O)c1ccc(I)cc1 [Derivative A, N-(2-diethylaminoethyl) 4-iodo benzamide]
[1]
  images compared with ^125 I-A: identical images
B16 murine melanoma
  marker of the B16 murine melanoma: markers of the B16 murine melanoma
[2]; blood, read-out: blood % ID/g
  tissue uptake at 1 h: 1.04 %ID/g
  tissue uptake at 2 h: 0.74 %ID/g
  tissue uptake at 4 h: 0.54 %ID/g
  tissue uptake at 24 h: 0.022 %ID/g
  tissue uptake at 12 h: 0.09 %ID/g
[2]; blood, 6 h, read-out: blood % ID/g
  tissue uptake at 6 h: 0.21 %ID/g
[2]; blood, 8 h, read-out: blood % ID/g
  tissue uptake at 8 h: 0.34 %ID/g
[2]; brain, read-out: brain % ID/g
  tissue uptake at 1 h: 2.67 %ID/g
  tissue uptake at 2 h: 1.4 %ID/g
  tissue uptake at 4 h: 0.7 %ID/g
  tissue uptake at 24 h: 0.005 %ID/g
  tissue uptake at 12 h: 0.04 %ID/g
[2]; brain, 6 h, read-out: brain % ID/g
  tissue uptake at 6 h: 0.32 %ID/g
[2]; brain, 8 h, read-out: brain % ID/g
  tissue uptake at 8 h: 0.18 %ID/g
[2]; eye, read-out: eye % ID/g
  tissue uptake at 1 h: 13.6 %ID/g
  tissue uptake at 2 h: 13 %ID/g
  tissue uptake at 4 h: 12.4 %ID/g
  tissue uptake at 24 h: 6.65 %ID/g
  tissue uptake at 12 h: 8.49 %ID/g
[2]; eye, 6 h, read-out: eye % ID/g
  tissue uptake at 6 h: 12.1 %ID/g
[2]; eye, 8 h, read-out: eye % ID/g
  tissue uptake at 8 h: 8.07 %ID/g
[2]; [3]
  tissue uptake at 1 h: 5.22 %ID/g
  tissue uptake at 2 h: 3.94 %ID/g
  tissue uptake at 4 h: 2.8 %ID/g
  tissue uptake at 12 h: 0.14 %ID/g
  tissue uptake at 24 h: 0.02 %ID/g
[2]; intestine, 6 h, read-out: intestine % ID/g
  tissue uptake at 6 h: 0.75 %ID/g
[2]; intestine, 8 h, read-out: intestine % ID/g
  tissue uptake at 8 h: 0.71 %ID/g
[2]; [4]
  tissue uptake at 1 h: 8.56 %ID/g
  tissue uptake at 2 h: 5.93 %ID/g
  tissue uptake at 4 h: 3.67 %ID/g
  tissue uptake at 24 h: 0.07 %ID/g
  tissue uptake at 12 h: 0.19 %ID/g
[2]; kidney, 6 h, read-out: kidney % ID/g
  tissue uptake at 6 h: 1.1 %ID/g
[2]; kidney, 8 h, read-out: kidney % ID/g
  tissue uptake at 8 h: 0.84 %ID/g
[2]; liver, read-out: liver % ID/g
  tissue uptake at 1 h: 6.04 %ID/g
  tissue uptake at 2 h: 4.02 %ID/g
  tissue uptake at 4 h: 2.46 %ID/g
  tissue uptake at 24 h: 0.16 %ID/g
  tissue uptake at 12 h: 0.25 %ID/g
[2]; liver, 6 h, read-out: liver % ID/g
  tissue uptake at 6 h: 0.95 %ID/g
[2]; liver, 8 h, read-out: liver % ID/g
  tissue uptake at 8 h: 0.8 %ID/g
[2]; lung, read-out: lungs % ID/g
  tissue uptake at 1 h: 11 %ID/g
  tissue uptake at 2 h: 6.12 %ID/g
  tissue uptake at 4 h: 4.29 %ID/g
  tissue uptake at 12 h: 0.2 %ID/g
  tissue uptake at 24 h: 0.05 %ID/g
[2]; lung, 6 h, read-out: lungs % ID/g
  tissue uptake at 6 h: 1.99 %ID/g
[2]; lung, 8 h, read-out: lungs % ID/g
  tissue uptake at 8 h: 1.11 %ID/g
[2]; lung, as from the 6th hour, mice bearing melanic melanomas, read-out: pulmonary binding
  tissue uptake at 6 h: < 1 %ID/g
[2]; [5]
  tissue uptake at 1 h: 1.55 %ID/g
  tissue uptake at 2 h: 1.13 %ID/g
  tissue uptake at 4 h: 0.66 %ID/g
  tissue uptake at 24 h: 0.009 %ID/g
  tissue uptake at 12 h: 0.03 %ID/g
[2]; muscle, 6 h, read-out: muscle % ID/g
  tissue uptake at 6 h: 0.19 %ID/g
[2]; muscle, 8 h, read-out: muscle % ID/g
  tissue uptake at 8 h: 0.14 %ID/g
[2]; [6]
  tissue uptake at 1 h: 5.34 %ID/g
  tissue uptake at 2 h: 3.42 %ID/g
  tissue uptake at 4 h: 2.01 %ID/g
  tissue uptake at 12 h: 0.13 %ID/g
  tissue uptake at 24 h: 0.04 %ID/g
[2]; pancreas, 6 h, read-out: pancreas % ID/g
  tissue uptake at 6 h: 0.55 %ID/g
[2]; pancreas, 8 h, read-out: pancreas % ID/g
  tissue uptake at 8 h: 0.41 %ID/g
[2]; [7]
  tissue uptake at 1 h: 0.82 %ID/g
  tissue uptake at 2 h: 0.55 %ID/g
  tissue uptake at 4 h: 0.45 %ID/g
  tissue uptake at 24 h: 0.024 %ID/g
  tissue uptake at 12 h: 0.11 %ID/g
[2]; plasma, 6 h, read-out: plasma % ID/g
  tissue uptake at 6 h: 0.21 %ID/g
[2]; plasma, 8 h, read-out: plasma % ID/g
  tissue uptake at 8 h: 0.38 %ID/g
[2]; [8]
  tissue uptake at 1 h: 5.91 %ID/g
  tissue uptake at 2 h: 2.94 %ID/g
  tissue uptake at 4 h: 1.36 %ID/g
  tissue uptake at 12 h: 0.16 %ID/g
  tissue uptake at 24 h: 0.02 %ID/g
[2]; spleen, 6 h, read-out: spleen % ID/g
  tissue uptake at 6 h: 0.56 %ID/g
[2]; spleen, 8 h, read-out: spleen % ID/g
  tissue uptake at 8 h: 0.46 %ID/g
[2]; [9]
  tissue uptake at 1 h: 6.03 %ID/g
  tissue uptake at 2 h: 3.87 %ID/g
  tissue uptake at 4 h: 2.35 %ID/g
  tissue uptake at 12 h: 0.19 %ID/g
  tissue uptake at 24 h: 0.07 %ID/g
[2]; stomach, 6 h, read-out: stomach % ID/g
  tissue uptake at 6 h: 1.14 %ID/g
[2]; stomach, 8 h, read-out: stomach % ID/g
  tissue uptake at 8 h: 1.65 %ID/g
[2]; [10]
  tissue uptake at 1 h: 6.06 %ID/g
  tissue uptake at 2 h: 3.6 %ID/g
  tissue uptake at 4 h: 3.68 %ID/g
  tissue uptake at 12 h: 0.44 %ID/g
  tissue uptake at 24 h: 0.09 %ID/g
[2]; submaxillary glands, 6 h, read-out: submaxillary glands % ID/g
  tissue uptake at 6 h: 1.12 %ID/g
[2]; submaxillary glands, 8 h, read-out: submaxillary glands % ID/g
  tissue uptake at 8 h: 0.98 %ID/g
[2]; tumor, read-out: tumor % ID/g
  tissue uptake at 1 h: 6.75 %ID/g
  tissue uptake at 2 h: 6.04 %ID/g
  tissue uptake at 4 h: 4.82 %ID/g
  tissue uptake at 24 h: 0.79 %ID/g
  tissue uptake at 12 h: 1.01 %ID/g
[2]; tumor, 6 h, read-out: tumor % ID/g
  tissue uptake at 6 h: 3.53 %ID/g
[2]; tumor, up to 8 hours, B16, read-out: intratumoral concentration
  tissue uptake at 8 h: > 1 %ID/g
[2]; tumor, 8 h, read-out: tumor % ID/g
  tissue uptake at 8 h: 3.42 %ID/g

Reference: patent publication US5190741A, “Agents for diagnosing and treating melanomas, aromatic halogenated derivatives usable as such agents and their preparation” (Institut National de la Sante et de la Recherche Medicale …, priority 1989, dated 1993)
